# Measured values published in PubChem BioAssay (NCI).
#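 Test compounds were applied to cells in 96-well plates for 48 hours at 5 doses. TGI: concentration producing complete growth inhibition.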
# Key:
# Assay in all cases: growth of human tumour cells (NCI), 48 h
# BT-549 breast = tested on: BT-549 breast
# SK-OV-3 ovarian = tested on: SK-OV-3 ovarian
# EKVX NSCLC = tested on: EKVX NSCLC
# A549 NSCLC = tested on: A549 NSCLC
# HCT-116 colon = tested on: HCT-116 colon
# M14 melanoma = tested on: M14 melanoma
# SK-MEL-2 melanoma = tested on: SK-MEL-2 melanoma
# OVCAR-5 ovarian = tested on: OVCAR-5 ovarian
# SR leukemia = tested on: SR leukemia
# HL-60(TB) leukemia = tested on: HL-60(TB) leukemia
# SW-620 colon = tested on: SW-620 colon
# OVCAR-4 ovarian = tested on: OVCAR-4 ovarian
# SN12C renal = tested on: SN12C renal
# 786-0 renal = tested on: 786-0 renal
# KM12 colon = tested on: KM12 colon
# SF-539 CNS = tested on: SF-539 CNS
# COLO 205 colon = tested on: COLO 205 colon
# IGROV1 ovarian = tested on: IGROV1 ovarian
# K-562 leukemia = tested on: K-562 leukemia
# PC-3 prostate = tested on: PC-3 prostate
# UACC-257 melanoma = tested on: UACC-257 melanoma
# SK-MEL-5 melanoma = tested on: SK-MEL-5 melanoma
# CAKI-1 renal = tested on: CAKI-1 renal
# ACHN renal = tested on: ACHN renal
# SF-295 CNS = tested on: SF-295 CNS
# MDA-MB-435 = tested on: MDA-MB-435
# HS 578T breast = tested on: HS 578T breast
# HOP-62 NSCLC = tested on: HOP-62 NSCLC
# SNB-75 CNS = tested on: SNB-75 CNS
# TK-10 renal = tested on: TK-10 renal
# UACC-62 melanoma = tested on: UACC-62 melanoma
# T-47D breast = tested on: T-47D breast
# SF-268 CNS = tested on: SF-268 CNS
# RXF 393 renal = tested on: RXF 393 renal
# MDA-N = tested on: MDA-N
# LOX IMVI melanoma = tested on: LOX IMVI melanoma
# MCF7 breast = tested on: MCF7 breast
# UO-31 renal = tested on: UO-31 renal
# DU-145 prostate = tested on: DU-145 prostate
# OVCAR-8 ovarian = tested on: OVCAR-8 ovarian
# MALME-3M melanoma = tested on: MALME-3M melanoma
# NCI-H226 lung = tested on: NCI-H226 lung
# NCI-H522 lung = tested on: NCI-H522 lung
# NCI-H23 lung = tested on: NCI-H23 lung
# MDA-MB-231 breast = tested on: MDA-MB-231 breast
# CCRF-CEM leukemia = tested on: CCRF-CEM leukemia
# RPMI-8226 leukemia = tested on: RPMI-8226 leukemia
# NCI-H460 lung = tested on: NCI-H460 lung
# HCT-15 colon = tested on: HCT-15 colon
# U251 CNS = tested on: U251 CNS
# SK-MEL-28 melanoma = tested on: SK-MEL-28 melanoma
# HOP-92 NSCLC = tested on: HOP-92 NSCLC
# HT29 colon = tested on: HT29 colon
# SNB-19 CNS = tested on: SNB-19 CNS
# NCI/ADR-RES ovarian = tested on: NCI/ADR-RES ovarian
# MOLT-4 leukemia = tested on: MOLT-4 leukemia
# A498 renal = tested on: A498 renal
# OVCAR-3 ovarian = tested on: OVCAR-3 ovarian
# HCC-2998 colon = tested on: HCC-2998 colon
smiles,measurement,setting,value
CCCCCCCCCCCC(=O)N(CCCCCCCCCCC(=O)O)CC(O)C(O)C(OC1OC(CO)C(O)C(O)C1O)C(O)CO (stereo not drawn),TGI,BT-549 breast,> 100 µM
same,TGI,SK-OV-3 ovarian,> 100 µM
same,TGI,EKVX NSCLC,> 100 µM
same,TGI,A549 NSCLC,> 100 µM
same,TGI,HCT-116 colon,> 100 µM
same,TGI,M14 melanoma,> 100 µM
same,TGI,SK-MEL-2 melanoma,> 100 µM
same,TGI,OVCAR-5 ovarian,> 100 µM
same,TGI,SR leukemia,> 100 µM
same,TGI,HL-60(TB) leukemia,> 100 µM
same,TGI,SW-620 colon,> 100 µM
same,TGI,OVCAR-4 ovarian,> 100 µM
same,TGI,SN12C renal,> 100 µM
same,TGI,786-0 renal,> 100 µM
same,TGI,KM12 colon,> 100 µM
same,TGI,SF-539 CNS,> 100 µM
same,TGI,COLO 205 colon,> 100 µM
same,TGI,IGROV1 ovarian,> 100 µM
same,TGI,K-562 leukemia,> 100 µM
same,TGI,PC-3 prostate,> 100 µM
same,TGI,UACC-257 melanoma,> 100 µM
same,TGI,SK-MEL-5 melanoma,> 100 µM
same,TGI,CAKI-1 renal,> 100 µM
same,TGI,ACHN renal,> 100 µM
same,TGI,SF-295 CNS,> 100 µM
same,TGI,MDA-MB-435,> 100 µM
same,TGI,HS 578T breast,> 100 µM
same,TGI,HOP-62 NSCLC,> 100 µM
same,TGI,SNB-75 CNS,> 100 µM
same,TGI,TK-10 renal,> 100 µM
same,TGI,UACC-62 melanoma,> 100 µM
same,TGI,T-47D breast,> 100 µM
same,TGI,SF-268 CNS,> 100 µM
same,TGI,RXF 393 renal,> 100 µM
same,TGI,MDA-N,> 100 µM
same,TGI,LOX IMVI melanoma,> 100 µM
same,TGI,MCF7 breast,> 100 µM
same,TGI,UO-31 renal,> 100 µM
same,TGI,DU-145 prostate,> 100 µM
same,TGI,OVCAR-8 ovarian,> 100 µM
same,TGI,MALME-3M melanoma,> 100 µM
same,TGI,NCI-H226 lung,> 100 µM
same,TGI,NCI-H522 lung,> 100 µM
same,TGI,NCI-H23 lung,> 100 µM
same,TGI,MDA-MB-231 breast,> 100 µM
same,TGI,CCRF-CEM leukemia,> 100 µM
same,TGI,RPMI-8226 leukemia,> 100 µM
same,TGI,NCI-H460 lung,> 100 µM
same,TGI,HCT-15 colon,> 100 µM
same,TGI,U251 CNS,> 100 µM
same,TGI,SK-MEL-28 melanoma,> 100 µM
same,TGI,HOP-92 NSCLC,> 100 µM
same,TGI,HT29 colon,> 100 µM
same,TGI,SNB-19 CNS,> 100 µM
same,TGI,NCI/ADR-RES ovarian,> 100 µM
same,TGI,MOLT-4 leukemia,> 100 µM
same,TGI,A498 renal,> 100 µM
same,TGI,OVCAR-3 ovarian,> 100 µM
same,TGI,HCC-2998 colon,> 100 µM
Cn1c(=O)c2[nH]c(CCCCc3nc4ccccc4[nH]3)nc2n(C)c1=O,TGI,BT-549 breast,> 100 µM
same,TGI,SK-OV-3 ovarian,> 100 µM
same,TGI,EKVX NSCLC,> 100 µM
same,TGI,A549 NSCLC,> 100 µM
same,TGI,HCT-116 colon,> 100 µM
same,TGI,M14 melanoma,> 100 µM
same,TGI,SK-MEL-2 melanoma,> 100 µM
same,TGI,OVCAR-5 ovarian,> 100 µM
same,TGI,SR leukemia,> 100 µM
same,TGI,HL-60(TB) leukemia,> 100 µM
same,TGI,SW-620 colon,> 100 µM
same,TGI,OVCAR-4 ovarian,> 100 µM
same,TGI,SN12C renal,> 100 µM
same,TGI,786-0 renal,> 100 µM
same,TGI,KM12 colon,> 100 µM
same,TGI,SF-539 CNS,> 100 µM
same,TGI,COLO 205 colon,> 100 µM
same,TGI,IGROV1 ovarian,> 100 µM
same,TGI,K-562 leukemia,> 100 µM
same,TGI,PC-3 prostate,> 100 µM
same,TGI,UACC-257 melanoma,> 100 µM
same,TGI,SK-MEL-5 melanoma,> 100 µM
same,TGI,CAKI-1 renal,> 100 µM
same,TGI,ACHN renal,> 100 µM
same,TGI,SF-295 CNS,> 100 µM
same,TGI,MDA-MB-435,> 100 µM
same,TGI,HS 578T breast,> 100 µM
same,TGI,HOP-62 NSCLC,> 100 µM
same,TGI,SNB-75 CNS,> 100 µM
same,TGI,TK-10 renal,> 100 µM
same,TGI,UACC-62 melanoma,> 100 µM
same,TGI,T-47D breast,> 100 µM
same,TGI,SF-268 CNS,> 100 µM
same,TGI,RXF 393 renal,> 100 µM
same,TGI,MDA-N,> 100 µM
same,TGI,LOX IMVI melanoma,> 100 µM
same,TGI,MCF7 breast,> 100 µM
same,TGI,UO-31 renal,> 100 µM
same,TGI,DU-145 prostate,> 100 µM
same,TGI,OVCAR-8 ovarian,> 100 µM
same,TGI,MALME-3M melanoma,> 100 µM
same,TGI,NCI-H226 lung,> 100 µM
same,TGI,NCI-H522 lung,> 100 µM
same,TGI,NCI-H23 lung,> 100 µM
same,TGI,MDA-MB-231 breast,> 100 µM
same,TGI,CCRF-CEM leukemia,> 100 µM
same,TGI,RPMI-8226 leukemia,> 100 µM
same,TGI,NCI-H460 lung,> 100 µM
same,TGI,HCT-15 colon,> 100 µM
same,TGI,U251 CNS,> 100 µM
same,TGI,SK-MEL-28 melanoma,> 100 µM
same,TGI,HOP-92 NSCLC,95.8 µM
same,TGI,HT29 colon,> 100 µM
same,TGI,SNB-19 CNS,> 100 µM
same,TGI,NCI/ADR-RES ovarian,> 100 µM
same,TGI,MOLT-4 leukemia,> 100 µM
same,TGI,A498 renal,> 100 µM
same,TGI,OVCAR-3 ovarian,> 100 µM
same,TGI,HCC-2998 colon,> 100 µM
